{"source": "PubChem BioAssay (NCI)", "test_in_all_cases": "growth of human tumour cells (NCI), 48 h", "key": {"A549 NSCLC": {"tested_on": "A549 NSCLC"}, "MCF7 breast": {"tested_on": "MCF7 breast"}, "SW-620 colon": {"tested_on": "SW-620 colon"}, "CAKI-1 renal": {"tested_on": "CAKI-1 renal"}, "RPMI-8226 leukemia": {"tested_on": "RPMI-8226 leukemia"}, "LOX IMVI melanoma": {"tested_on": "LOX IMVI melanoma"}, "HOP-62 NSCLC": {"tested_on": "HOP-62 NSCLC"}, "MDA-MB-231 breast": {"tested_on": "MDA-MB-231 breast"}, "BT-549 breast": {"tested_on": "BT-549 breast"}, "NCI-H522 lung": {"tested_on": "NCI-H522 lung"}, "MOLT-4 leukemia": {"tested_on": "MOLT-4 leukemia"}, "COLO 205 colon": {"tested_on": "COLO 205 colon"}, "OVCAR-4 ovarian": {"tested_on": "OVCAR-4 ovarian"}, "SK-MEL-5 melanoma": {"tested_on": "SK-MEL-5 melanoma"}, "ACHN renal": {"tested_on": "ACHN renal"}, "NCI/ADR-RES ovarian": {"tested_on": "NCI/ADR-RES ovarian"}, "KM12 colon": {"tested_on": "KM12 colon"}, "OVCAR-5 ovarian": {"tested_on": "OVCAR-5 ovarian"}, "HL-60(TB) leukemia": {"tested_on": "HL-60(TB) leukemia"}, "M14 melanoma": {"tested_on": "M14 melanoma"}, "HCT-15 colon": {"tested_on": "HCT-15 colon"}, "MDA-MB-435": {"tested_on": "MDA-MB-435"}, "SF-539 CNS": {"tested_on": "SF-539 CNS"}, "U251 CNS": {"tested_on": "U251 CNS"}, "PC-3 prostate": {"tested_on": "PC-3 prostate"}, "SF-295 CNS": {"tested_on": "SF-295 CNS"}, "SK-MEL-2 melanoma": {"tested_on": "SK-MEL-2 melanoma"}, "NCI-H23 lung": {"tested_on": "NCI-H23 lung"}, "MDA-N": {"tested_on": "MDA-N"}, "UACC-62 melanoma": {"tested_on": "UACC-62 melanoma"}, "HT29 colon": {"tested_on": "HT29 colon"}, "TK-10 renal": {"tested_on": "TK-10 renal"}, "EKVX NSCLC": {"tested_on": "EKVX NSCLC"}, "OVCAR-3 ovarian": {"tested_on": "OVCAR-3 ovarian"}, "K-562 leukemia": {"tested_on": "K-562 leukemia"}, "SR leukemia": {"tested_on": "SR leukemia"}, "SK-OV-3 ovarian": {"tested_on": "SK-OV-3 ovarian"}, "SNB-75 CNS": {"tested_on": "SNB-75 CNS"}, "SNB-19 CNS": {"tested_on": "SNB-19 CNS"}, "IGROV1 ovarian": {"tested_on": "IGROV1 ovarian"}, "T-47D breast": {"tested_on": "T-47D breast"}, "HCT-116 colon": {"tested_on": "HCT-116 colon"}, "SN12C renal": {"tested_on": "SN12C renal"}, "HCC-2998 colon": {"tested_on": "HCC-2998 colon"}, "UACC-257 melanoma": {"tested_on": "UACC-257 melanoma"}, "NCI-H226 lung": {"tested_on": "NCI-H226 lung"}, "UO-31 renal": {"tested_on": "UO-31 renal"}, "786-0 renal": {"tested_on": "786-0 renal"}, "A498 renal": {"tested_on": "A498 renal"}, "SK-MEL-28 melanoma": {"tested_on": "SK-MEL-28 melanoma"}, "OVCAR-8 ovarian": {"tested_on": "OVCAR-8 ovarian"}}, "note": "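Exposure lasted 48 hours, with cells grown in 96-well plates and compounds tested at five concentrations. TGI is the concentration that stops growth completely.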", "data": [{"smiles": "O=c1c2ccccc2[nH]c2c(Cl)cc(Cl)c(NC3CCCCC3)c12", "values": [{"measurement": "TGI", "setting": "A549 NSCLC", "value": "> 100", "unit": "µM"}, {"measurement": "TGI", "setting": "MCF7 breast", "value": 76.2, "unit": "µM"}, {"measurement": "TGI", "setting": "SW-620 colon", "value": 49, "unit": "µM"}, {"measurement": "TGI", "setting": "CAKI-1 renal", "value": 83.2, "unit": "µM"}, {"measurement": "TGI", "setting": "RPMI-8226 leukemia", "value": 85, "unit": "µM"}, {"measurement": "TGI", "setting": "LOX IMVI melanoma", "value": "> 100", "unit": "µM"}, {"measurement": "TGI", "setting": "HOP-62 NSCLC", "value": 60.8, "unit": "µM"}, {"measurement": "TGI", "setting": "MDA-MB-231 breast", "value": 74.3, "unit": "µM"}, {"measurement": "TGI", "setting": "BT-549 breast", "value": 67.3, "unit": "µM"}, {"measurement": "TGI", "setting": "NCI-H522 lung", "value": 44, "unit": "µM"}, {"measurement": "TGI", "setting": "MOLT-4 leukemia", "value": 86.9, "unit": "µM"}, {"measurement": "TGI", "setting": "COLO 205 colon", "value": "> 100", "unit": "µM"}, {"measurement": "TGI", "setting": "OVCAR-4 ovarian", "value": "> 100", "unit": "µM"}, {"measurement": "TGI", "setting": "SK-MEL-5 melanoma", "value": "> 100", "unit": "µM"}, {"measurement": "TGI", "setting": "ACHN renal", "value": 37.7, "unit": "µM"}, {"measurement": "TGI", "setting": "NCI/ADR-RES ovarian", "value": 44, "unit": "µM"}, {"measurement": "TGI", "setting": "KM12 colon", "value": 32.4, "unit": "µM"}, {"measurement": "TGI", "setting": "OVCAR-5 ovarian", "value": 53.9, "unit": "µM"}, {"measurement": "TGI", "setting": "HL-60(TB) leukemia", "value": 43.9, "unit": "µM"}, {"measurement": "TGI", "setting": "M14 melanoma", "value": 47.7, "unit": "µM"}, {"measurement": "TGI", "setting": "HCT-15 colon", "value": "> 100", "unit": "µM"}, {"measurement": "TGI", "setting": "MDA-MB-435", "value": 43.5, "unit": "µM"}, {"measurement": "TGI", "setting": "SF-539 CNS", "value": 57.8, "unit": "µM"}, {"measurement": "TGI", "setting": "U251 CNS", "value": 36.9, "unit": "µM"}, {"measurement": "TGI", "setting": "PC-3 prostate", "value": 60.1, "unit": "µM"}, {"measurement": "TGI", "setting": "SF-295 CNS", "value": "> 100", "unit": "µM"}, {"measurement": "TGI", "setting": "SK-MEL-2 melanoma", "value": 41.9, "unit": "µM"}, {"measurement": "TGI", "setting": "NCI-H23 lung", "value": 36.8, "unit": "µM"}, {"measurement": "TGI", "setting": "MDA-N", "value": 79.1, "unit": "µM"}, {"measurement": "TGI", "setting": "UACC-62 melanoma", "value": 36.6, "unit": "µM"}, {"measurement": "TGI", "setting": "HT29 colon", "value": 30.6, "unit": "µM"}, {"measurement": "TGI", "setting": "TK-10 renal", "value": 61.3, "unit": "µM"}, {"measurement": "TGI", "setting": "EKVX NSCLC", "value": 76.8, "unit": "µM"}, {"measurement": "TGI", "setting": "OVCAR-3 ovarian", "value": 28, "unit": "µM"}, {"measurement": "TGI", "setting": "K-562 leukemia", "value": "> 100", "unit": "µM"}, {"measurement": "TGI", "setting": "SR leukemia", "value": "> 100", "unit": "µM"}, {"measurement": "TGI", "setting": "SK-OV-3 ovarian", "value": "> 100", "unit": "µM"}, {"measurement": "TGI", "setting": "SNB-75 CNS", "value": 83.6, "unit": "µM"}, {"measurement": "TGI", "setting": "SNB-19 CNS", "value": 38.8, "unit": "µM"}, {"measurement": "TGI", "setting": "IGROV1 ovarian", "value": 96.2, "unit": "µM"}, {"measurement": "TGI", "setting": "T-47D breast", "value": "> 100", "unit": "µM"}, {"measurement": "TGI", "setting": "HCT-116 colon", "value": "> 100", "unit": "µM"}, {"measurement": "TGI", "setting": "SN12C renal", "value": 55.3, "unit": "µM"}, {"measurement": "TGI", "setting": "HCC-2998 colon", "value": 89.9, "unit": "µM"}, {"measurement": "TGI", "setting": "UACC-257 melanoma", "value": 69.5, "unit": "µM"}, {"measurement": "TGI", "setting": "NCI-H226 lung", "value": 44.4, "unit": "µM"}, {"measurement": "TGI", "setting": "UO-31 renal", "value": 33.5, "unit": "µM"}, {"measurement": "TGI", "setting": "786-0 renal", "value": "> 100", "unit": "µM"}, {"measurement": "TGI", "setting": "A498 renal", "value": 43.3, "unit": "µM"}, {"measurement": "TGI", "setting": "SK-MEL-28 melanoma", "value": "> 100", "unit": "µM"}, {"measurement": "TGI", "setting": "OVCAR-8 ovarian", "value": 44.8, "unit": "µM"}]}]}
